Source: patent publication US10385036B2, “Sulfonamide-substituted indole modulators of RORC2 and methods of use thereof” (Pfizer Inc., priority 2015, dated 2019)
Where two headings read alike, the source gives them in different places.

Assays:
[1] = tested on: IL-17 production from human Th17 cells; assay: Assay of IL-17 production from human Th17 cells; type: cell-based; conditions: 144 h
Protocol: The activity of compound of the invention can be also be determined by an IL-17 production from human Th17 cells assay. In general, this assay measures blockade of IL-17 production, the signature cytokine of T helper 17 (Th17) cells, by compounds. Purified human CD4+ T cells are stimulated with anti-CD3+anti-CD28 and incubated with a cytokine cocktail that induce their differentiation into Th17 in the absence or presence of various concentrations of compound. After 6 days, IL-17A concentration is measured in the cell culture supernatant with an ELISA kit (MSD).
Preparation of human CD4+ T cells. CD4+ T cells were purified from buffy coats from healthy donors (obtained from Massachusetts General Hospital) by negative selection the following procedure: Mixing 25 mL of blood with 1 mL of Rosette Sep CD4+ T cell enrichment cocktail (StemCell Technologies) followed by application of a layer of 14 mL Ficoll Paque Plus (Amersham GE Healthcare) and subsequent centrifugation at 1200 g for 20 min at room temperature. The Ficoll layer was then harvested and washed with phosphate saline buffer containing 2% (v/v) fetal bovine serum and cells were resuspended with RPMI medium containing 10% (v/v) fetal bovine serum and 10% (v/v) DMSO, frozen and kept in LN2 until used.
[…] Serial dilutions of compounds of the invention are prepared at 10× final concentration in X-Vivo15 medium containing 3% (v/v) DMSO.
On the second day of the assay, a 384-well tissue culture plate was coated with 10 μg/mL anti-hCD3 (eBioscience) at 50 μL/well. After 2 hr at 37° C., the supernatant is discarded and the coated plates are kept in a sterile tissue culture hood.
The cytokine plus anti-CD28 cocktail with CD4+ cells is prepared such that the cocktail is diluted 10-fold and cell density is 0.22×10^6/mL. The mixture is incubated 1 hr at 37° C.
90 μL (20,000 cells) dispensed per well in the anti-hCD3 coated plate prepared as noted above.
10 μL 10× compound is added per well (final DMSO=0.3%) from the compound plate that was previously prepared, followed by 6 days of incubation in a tissue culture vessel in a humidified chamber at 37° C. and 5% CO2.
Measurement is carried out in a Sector Imager 6000 by the same manufacturer. Signal units from the instrument are converted to pg/mL using a calibration curve with known amounts of IL-17A. IC50 values of test compounds (Table 2) are determined by the non-linear regression analysis of dose response curves.

[2] = molecular target: RORC2 ligand binding domain (6-His-RORC2 LBD) (Homo sapiens (Human), UniProt P51449); assay: Assay of co-activator recruitment by TR-FRET; type: biochemical; conditions: 6-His-RORC2 LBD / biotin-coactivator peptide SRC1-2 interaction, 3 hr room temperature
Sequence of RORC2 ligand binding domain (6-His-RORC2 LBD) (P51449 269-508): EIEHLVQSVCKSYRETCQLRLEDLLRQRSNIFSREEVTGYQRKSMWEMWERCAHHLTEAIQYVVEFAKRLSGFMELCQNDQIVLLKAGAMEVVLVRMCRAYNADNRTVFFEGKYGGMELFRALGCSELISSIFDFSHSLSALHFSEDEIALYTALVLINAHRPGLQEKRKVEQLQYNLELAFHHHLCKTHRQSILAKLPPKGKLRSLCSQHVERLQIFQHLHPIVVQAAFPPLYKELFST
Protocol: The activity of compound of the invention can be determined by a co-activator recruitment by TR-FRET (time-resolved fluorescence resonance energy transfer) assay. […] When receptor and coactivator are bound to each other, upon shining light at 337 nm on the sample, the Europium emits fluorescence that excites APC due to close proximity (FRET) and this signal is measured at 665 nm. Due to the long lasting fluorescence emission of Europium, the non-specific, short-lived fluorescence is time-resolved (TR) from the fluorescence of interest. Inhibitors of the interaction of receptor and coactivator peptide are detected by a decrease in TR-FRET signal.
Specifically, in one embodiment the aforementioned assay was performed as outlined below. The assay was carried out in black polystyrene, 384-well plates in a total assay volume of 50.5 μL. The assay buffer contained 50 mM TRIS-HCL pH 7.5, 1 mM NaCl, 2 mM MgCl2, 0.5 mg/mL bovine serum albumin, and 5 mM dithiothreitol.

[3] = IL-17A in supernatant by ELISA (MSD) after 6 days, human CD4+ T cells differentiated into Th17, read-out: IC50

SMILES | IC50 ([1]; Homo sapiens, CD4+ T) [nM] | IC50 [2] [nM] | IC50 [1, 3] [nM]
Cc1ccc(F)c(S(=O)(=O)Nc2ccc3c(c2)c([C@@H]2CCN(C(=O)[C@H](C)C4CCCC4)C[C@@H]2C)cn3C)c1 (single isomer, unassigned) [Example 35] | 8.4 | – | –
C[C@@H](C(=O)N1CCC(c2cn(C)c3ccc(NS(=O)(=O)c4ccccc4)cc23)CC1)C(C)(C)C [Example 29, (R)-N-(1-methyl-3-(1-(2,3,3-trimethylbutanoyl)piperidin-4-yl)-1H-indol-5-yl)benzenesulfonamide] | 28.5 | – | –
Cn1cc(C2CCN(C(=O)CC3CC3)CC2)c2cc(NS(=O)(=O)c3ccc(F)cc3)ccc21 [Example 13, N-(3-(1-(2-Cyclopropylacetyl)piperidin-4-yl)-1-methyl-1H-indol-5-yl)-4-fluorobenzenesulfonamide] | – | 16.9 | 310
CC(C)[C@H](C)C(=O)N1CCC(c2cn(C)c3ccc(NS(=O)(=O)c4ccc(F)cc4)cc23)CC1 [Example 16, (S)-N-(3-(1-(2,3-dimethylbutanoyl)pipendin-4-yl)-1-methyl-1H-indol-5-yl)-4-fluorobenzenesulfonamide] | – | 3.1 | 53.8
CCOc1ccccc1S(=O)(=O)Nc1ccc2c(c1)c([C@@H]1CCN(C(=O)[C@H](C)C3CCCC3)C[C@@H]1C)cn2C (single isomer, unassigned) [Example 33] | – | 1.1 | 8.4
C[C@@H](C(=O)N1CCC(c2cn(C)c3ccc(NS(=O)(=O)c4ccc(F)cc4)cc23)CC1)C1CCCC1 [Example 7, (R)-N-(3-(1-(2-cyclopentylpropanoyl)piperidin-4-yl)-1-methyl-1H-indol-5-yl)-4-fluorobenzenesulfonamide] | – | 4.5 | 28.1
CC(C)C(=O)N1CC[C@@H](c2cn(C)c3ccc(NS(=O)(=O)c4ccc(F)cc4)cc23)CC1(C)C (single isomer, unassigned) [Example 18] | – | 7 | 19
C[C@H]1C[C@H](c2cn(C)c3ccc(NS(=O)(=O)c4ccc(F)cc4)cc23)CCN1C(=O)C1CCCC1 [Example 21, N-(3-((2S,4R)-1-(cyclopentanecarbonyl)-2-methylpiperidin-4-yl)-1-methyl-1H-indol-5-yl)-4-fluorobenzenesulfonamide] | 88.7 | – | –
CC(C)C(=O)N1CCC(c2cn(C)c3ccc(NS(=O)(=O)c4ccc(F)c(O)c4)cc23)CC1 [Example 23, 4-fluoro-3-hydroxy-N-(3-(1-isobutyrylpiperidin-4-yl)-1-methyl-1H-indol-5-yl)benzenesulfonamide] | 1460 | – | –
CC(C)C(=O)N1CC[C@@H](c2cn(C)c3ccc(NS(=O)(=O)c4ccc(F)cc4)cc23)[C@@H](C)C1 (single isomer, unassigned) [Example 5] | – | 5.1 | 90.3
Cn1cc(C2CCN(C(=O)C3CC3)CC2)c2cc(NS(=O)(=O)c3ccc(F)cc3)ccc21 [Example 8, N-(3-(1-(cyclopropanecarbonyl)piperidin-4-yl)-1-methyl-1H-indol-5-yl)-4-fluorobenzenesulfonamide] | – | 17.1 | 184
Cn1cc(C2CCN(C(=O)c3ccns3)CC2)c2cc(NS(=O)(=O)c3ccc(F)cc3)ccc21 [Example 6, 4-fluoro-N-(3-(1-(isothiazole-5-carbonyl)piperidin-4-yl)-1-methyl-1H-indol-5-yl)benzenesulfonamide] | – | 75.9 | 276
Cc1noc(C)c1S(=O)(=O)Nc1ccc2c(c1)c(C1CCN(C(=O)[C@H](C)C(C)(C)C)CC1)cn2C [Example 30, (R)-3,5-dimethyl-N-(1-methyl-3-(1-(2,3,3-trimethylbutanoyl)piperidin-4-yl)-1H-indol-5-yl)isoxazole-4-sulfonamide] | – | 10 | 19.8
CC(CC(=O)N1CCC(c2cn(C)c3ccc(NS(=O)(=O)c4ccc(F)cc4)cc23)CC1)C(F)(F)F (stereo not shown) [Example 9, 4-fluoro-N-(1-methyl-3-(1-(4,4,4-trifluoro-3-methylbutanoyl)piperidin-4-yl)-1H-indol-5-yl)benzenesulfonamide] | – | 14.8 | 99.1
C[C@@H](C(=O)N1CCC(c2cn(C)c3ccc(NS(=O)(=O)c4ccccc4F)cc23)CC1)C(C)(C)C [Example 28, (R)-2-fluoro-N-(1-methyl-3-(1-(2,3,3-trimethylbutanoyl)piperidin-4-yl)-1H-indol-5-yl)benzenesulfonamide] | 11.4 | – | –
CCOc1ccccc1S(=O)(=O)Nc1ccc2c(c1)c(C1CCN(C(=O)[C@H](C)C(C)(C)C)CC1)cn2C [Example 27, (R)-2-ethoxy-N-(1-methyl-3-(1-(2,3,3-trimethylbutanoyl)piperidin-4-yl)-1H-indol-5-yl)benzenesulfonamide] | 16 | – | –
C[C@@H](C(=O)N1CCC(c2cn(C)c3ccc(NS(=O)(=O)c4ccc(F)cc4)cc23)CC1)C(C)(C)C [Example 10, (R)-4-fiuoro-N-(1-methyl-3-(1-(2,3,3-trimethylbutanoyl)piperidin-4-yl)-1H-indol-5-yl)benzenesulfonamide] | 29 | – | –
Cc1cccc(F)c1C(=O)N1CCC(c2cn(C)c3ccc(NS(=O)(=O)c4ccc(F)cc4)cc23)CC1 [Example 15, 4-fluoro-N-(3-(1-(2-fluoro-6-methylbenzoyl)piperidin-4-yl)-1-methyl-1H-indol-5-yl)benzenesulfonamide] | – | 6.8 | 189
CC(C)C(=O)N1CCC(c2cn(C)c3ccc(NS(=O)(=O)c4ccc(F)c(O[C@@H]5CCOC5)c4)cc23)CC1 [Example 24, (R)-4-fluoro-N-(3-(1-isobutyrylpiperidin-4-yl)-1-methyl-1H-indol-5-yl)-3-((tetrahydrofuran-3-yl)oxy)benzenesulfonamide] | 69.5 | – | –
Cn1cc(C2CCN(C(=O)C3CCCCC3)CC2)c2cc(NS(=O)(=O)c3ccc(F)cc3)ccc21 [Example 14, N-(3-(1-(cyclohexanecarbonyl)-piperidin-4-yl)-1-methyl-1H-indol-5-yl)-4-fluorobenzenesulfonamide] | 221 | – | –
C[C@@H](C(=O)N1CC[C@@H](c2cn(C)c3ccc(NS(=O)(=O)c4ccc(F)cc4)cc23)[C@@H](C)C1)C1CCCC1 [Example 2, N-(3-((3R,4R)-1-((R)-2-cyclopentylpropanoyl)-3-methylpiperidin-4-yl)-1-methyl-1H-indol-5-yl)-4-fluorobenzenesulfonamide] | 4.8 | – | –
Cc1ccc(S(=O)(=O)Nc2ccc3c(c2)c(C2CCN(C(=O)[C@H](C)C(C)(C)C)CC2)cn3C)cc1 [Example 25, (R)-4-methyl-N-(1-methyl-3-(1-(2,3,3-trimethylbutanoyl)piperidin-4-yl)-1H-indol-5-yl)benzenesulfonamide] | 10.6 | – | –
C[C@@H]1CN(C(=O)C2CCCC2)CC[C@@H]1c1cn(C)c2ccc(NS(=O)(=O)c3ccc(F)cc3)cc12 (single isomer, unassigned) [Example 4] | 137 | – | –
C[C@@H](C(=O)N1CC[C@@H](c2cn(C)c3ccc(NS(=O)(=O)c4ccccc4F)cc23)[C@@H](C)C1)C1CCCC1 (single isomer, unassigned) [Example 34] | 4.2 | – | –
C[C@H]1CN(C(=O)C2CCCC2)CC[C@H]1c1cn(C)c2ccc(NS(=O)(=O)c3ccc(F)cc3)cc12 (single isomer, unassigned) [Example 3] | 121 | – | –
C[C@H]1C[C@@H](c2cn(C)c3ccc(NS(=O)(=O)c4ccc(F)cc4)cc23)CCN1C(=O)C1CCCC1 [Example 20, N-(3-((2S,4S)-1-(cyclopentanecarbonyl)-2-methylpiperidin-4-yl)-1-methyl-1H-indol-5-yl)-4-fluorobenzenesulfonamide] | 633 | – | –
